Literature values, collected in patent US4127531A, “Novel hexapeptides, intermediates therefor, and compositions and methods employing said hexapeptides” (priority 1977, dated 1978).

Columns and labels:
rat = details: injected directly into the brain of the rat
[1] = test system: partially purified brain opiate receptor sites

For “H-Tyr-Gly-Gly-Phe-Met-OH [methionine enkephalin]”, the analgesic activity (rat) is given as “only weak analgesic agent of short duration” and the “binding to partially purified brain opiate receptor sites” value [1] is given as “binds stereo-specifically”.
